Measured values as given in patent US11730717B1, “Melanin-inspired antimicrobial” (The Board of Regents for the Oklahoma Agricultural and …, priority 2020, dated 2023).
Converted amounts (≈) assume the structure as drawn.

Experiments:
[1] = test system: Cryptococcus neoformans serotype A strain H99; test: Antifungal MIC assay; assay type: cell-based
Description: (§1) Cryptococcus neoformans serotype A strain H99 as well as Candida ablicans strain SC5314, were readily available in the lab. The stock of cells is stored at −80° C. to preserve the fungi and prevent contamination. The cells were grown and maintained in yeast extract-peptone-dextrose (YPD) media (Difco). Cryptococcus or Candida cells were incubated in YPD broth for 18 hrs at 30° C., in a shaking incubator. After the incubation period, they were washed three times in sterile phosphate-buffered saline (PBS) to remove all remaining residue of YPD. The cells were then quantified by using trypan blue dye exclusion in a hemocytometer.
(§2) C. neoformans were suspended in RPMI with MOPS, 0.165M, at a concentration of 0.5×10^3 cells/mL. RPMI MOPS media was added to a 96-well plate in a volume of 100 μL to every well, with the exception of column 1. An additional 80 μL of RPMI MOPS was added to column 4 for a total of 180 μL/per well. Amphotericin B or EIPE-1 was added to columns […] with a volume of 20 μL at a concentration of 1 mg/mL. Contents were mixed, then serially diluted 100 μL down the plate until column 11. The last 100 μL was discarded, leaving column 12 blank. C. neoformans was added at a volume of 100 μL per well from column 4 to column 12, so the final volume of the wells was 200 μL. Plates were incubated at 35° C. in a humid incubator for 48 hrs.

[2] = test system: Candida albicans strain SC5314; test: Antifungal MIC assay; assay type: cell-based; conditions: 35° C., 48 hrs, RPMI with MOPS
Description: as §1
as §2, with “C. albicans were suspended” for “C. neoformans were suspended”, “cells/mL. RPMI Mops media was” for “cells/mL. RPMI MOPS media was”, “μL/per well. EIPE-1 was” for “μL/per well. Amphotericin B or EIPE-1 was”, “blank. C. albicans was added” for “blank. C. neoformans was added”

[3] = test system: MRSA; test: Recoverable CFU after exposure to DBI; assay type: cell-based, Staphylococcus aureus; conditions: MRSA after 4 h of growth with DBI; DMSO control average 1.78×10^8
Description: To determine CFUs of PA and MRSA after exposure to DMSO, DBI, EIPE-1, Gentamicin or Methicillin, 10-fold serial dilutions were prepared in 96-well micro plates using multichannel pipettes. For each dilution, 25 ptL of each sample was pipetted onto a plate containing agar medium and incubated for 18 h at 37° C. The number of colonies for each dilution were counted and used to back calculate the number of bacteria per mL (CFU/mL) in each original bacterial culture.
After 4 h of growth, the resulting cultures were plated onto Mannitol Salts Agar (MSA). Decreased bacterial growth and decreased fermentation of the Mannitol (retention of the reddish hue of the MSA plate) could be seen in the MRSA culture exposed to DBI (FIG. 1A) which was confirmed with decreased recoverable CFUs (FIGS. 1B and 1C).

[4] = test system: HeLa cells; test: Cytotoxicity, LDH leakage assay; assay type: cell-based; conditions: 24-hour exposure, 250 μg/mL (610 μM)
Description: HeLa cells were cultured in 96-well plates at 37° C. and 5% CO2 in Roswell Park Memorial Institute (RMPI) 1640 medium with 5% Fetal Bovine Serum (FBS). Once HeLa cells reached 95% confluency, the media was replaced with media containing various concentrations of EIPE-1, DBI or DMSO for 24 hours. Cell cytotoxicity was measured using the lactate dehydrogenase (LDH) leakage assay. Results were compared to maximum values of lysed cells in control wells and were graphed as percent relative cytotoxicity using Prism 5.0.
Host cell cytotoxicity against HeLa cells was examined for both DBI and EIPE-1 (FIG. 2B). LDH release was examined after 24-hour exposure to varying concentrations of DBI, DMSO and EIPE-1. […] Thus, EIPE-1 is relatively safe to use with respect to eukaryotic cells.

[5] = test system: methicillin resistant Staphylococcus aureus (MRSA) clinical isolate; test: MIC by broth microdilution; assay type: cell-based; conditions: clinical isolate of MRSA from an adult CF patient; broth culture, 18 h at 37° C.
Description: The methicillin resistant Staphylococcus aureus (MRSA) and Pseudomonas aeruginosa (PA) strains used in this study are clinical isolates obtained from an adult CF patient at the Cystic Fibrosis Clinic at the OU Children's Hospital (Oklahoma City, Okla.). Escherichia coli (E. coli) and Enterococcus faecalis (E. faecalis) were obtained from American Type Culture Collection (ATCC). The strains were grown overnight with shaking at 37° C. (220 RPM) in 15 mL of Luria-Bertani (LB) broth. The overnight culture was sub-cultured the next day before use for the MIC experiments. All sub-cultures consisted of 1 mL of the overnight culture, mixed with 10 mL of Mueller Hinton broth. The working stock of the EIPE-1 and DBI was prepared by dissolving 1 mg of each in 1 mL of DMSO.
The minimum inhibitory concentrations (MICs) were determined by the broth microdilution method, following the guidelines of the Clinical and Laboratory Standards Institute (CLSI). Two-fold serial dilutions of EIPE-1, DBI, and Arm (starting with 1 mg/mL) were prepared in a 100 μL volume in 96-well microtiter plates. The dilution series included DMSO as a negative control. The bacterial culture […] was normalized to an OD600 of 0.2 and was then added to each well. Plates were incubated with shaking at 220 RPM at 37° C., and the MIC was determined based on the lowest concentration at which no visible growth of the bacterial isolate was observed.
In order to determine the MIC of EIPE-1 on MRSA, a culture of MRSA was grown overnight in Mueller Hinton broth (MHB) at 37° C., sub-cultured by a 1/100 dilution into MHB and dispensed into a 96 well culture block (900 μL of diluted culture in each well). To each well either DMSO or a serial dilution of EIPE-1 was added, then the culture was grown for 18 h at 37° C. The next day each well was tested for either growth or inhibition of growth by measuring of the OD^600 of the resulting culture. […] For comparison, the MIC of EIPE-1 was also determined against E. faecalis (8 μg/mL, 9 μM), confirming activity against Gram-positive bacteria.

[6] = test system: MRSA; test: Live/Dead staining and fluorescent microscopy; assay type: cell-based, Staphylococcus aureus; conditions: 16 μg/mL, 17 μM, 30 minutes; Syto 9 and propidium iodide
Description: MRSA was grown overnight in 10 mL of LB broth, sub-cultured (5 mL of overnight culture added to 20 mL LB) and grown for 3 h. Bacterial culture (150 μL) were removed and transferred to a 1.5 mL centrifuge tube, which was treated with DMSO, EIPE-1 (0.01 mg/mL) or DBI (0.01 mg/mL) for 30 minutes. Equal amounts of the two dyes (SYTO 9 dye, 3.34 mM in DMSO), and propidium iodide (20 mM in DMSO) were mixed. Then 0.5 μL of the dye mixture was added to each tube of treated MRSA cultures. Wet mounts were prepared on glass slides for imaging live and dead MRSA, and Differential Interference Contrast (DIC) images were obtained using a Leica DMI600B fluorescent microscope. To determine the percentage of bacteria alive and dead, the total bacteria in each condition were counted in 20 fields of view and graphed using Prism 5.0.
To address MRSA viability in response to EIPE-1 treatment, a Live/Dead staining and microscopy was utilized. MRSA was treated with either DBI or EIPE-1 (16 μg/mL, 17 μM each) for 30 minutes (DMSO was used as a negative solvent control) and then stained with the dyes, Syto™ 9 and propidium iodide.

[7] = test system: MRSA; test: Kirby-Bauer disc diffusion assay; assay type: cell-based, Staphylococcus aureus
Description: The susceptibility of MRSA to EIPE-1 was determined by the Kirby-Bauer disc diffusion method. Using a cotton swab applicator, a lawn of the S. aureus clinical isolate was placed onto Mueller Hinton agar plates to cover the entire surface of the plate. Filter discs (size=6 mm) were added onto the bacterial lawn. EIPE-1, DBI, and DMSO (10 μL each) were then added onto the filter discs.
The efficacy of compound EIPE-1 was tested by the Kirby-Bauer disc assay. The Kirby-Bauer disc assay assesses the sensitivity of bacteria to antimicrobial agents. If the bacteria are sensitive to the antimicrobial being tested, then a zone of inhibition of bacterial growth is seen around the filter disc containing the antimicrobial. The Kirby-Bauer disc assay was used to test the antimicrobial efficacy of EIPE-1 against MRSA. EIPE-1 was reconstituted at 1 mg/mL in DMSO and serially diluted (10^−1 to 10^−5) after which 10 μL of each dilution (and DMSO as a solvent control) was added to a separate disc on an LB plate inoculated with a lawn of bacteria. The plates were incubated at 37° C. for 24 h, and the resulting radii zone sizes around each disc were then measured.

## C[C@@H]1[C@H](O)[C@@H](C)/C=C/C=C/C=C/C=C/C=C/C=C/C=C/[C@H](O[C@@H]2O[C@H](C)[C@@H](O)[C@H](N)[C@@H]2O)C[C@@H]2O[C@](O)(C[C@@H](O)C[C@@H](O)[C@H](O)CC[C@@H](O)C[C@@H](O)CC(=O)O[C@H]1C)C[C@H](O)[C@H]2C(=O)O [Amphotericin B, reference compound]
[1]; 35° C., 48 hrs, RPMI with MOPS
  Minimum inhibitory concentration (MIC) for the isolate of C. neoformans: 0.6825 ± 0.2925 µg·mL
[1]; across four experiments
  minimum inhibitory concentration average, C. neoformans: 0.6 µg/mL (≈ 0.649 µM)
[2]
  Minimum inhibitory concentration (MIC) for the isolate of C. albicans: 0.5606 ± 0.1219 µg/mL

## COC(=O)c1cc2c(Br)c(OC)c(OC)c(Br)c2n1C [DBI, methyl 4,7-dibromo-5,6-dimethoxy-1-methyl-1H-indole-2-carboxylate]
[3]
  recoverable CFUs (average): 1.19×10^7 CFU/mL
[4]
  cytotoxicity (LDH release): 30%
[5]
  minimum inhibitory concentration (MIC): could not be determined
[6]
  Live/Dead staining (green = intact membrane, red = damaged membrane): mostly stained green

## CN(C)CCCOc1ccc(I)cc1 [arms]
[7]
  antimicrobial activity independent of the DBI core: did not exhibit any antimicrobial activity
